Reference: patent US9242987B2, “Heterocyclyl pyrazolopyrimidine analogues as JAK inhibitors” (Cellzome Limited, priority 2009, dated 2016)

Tests used:
JAK2 = target: T1, JAK2 (Homo sapiens, UniProt O60674); experiment: Kinobeads assay, JAK2; assay type: binding; details: mixed Molt4/Ramos cell lysate, dot blot detection
T1 construct: endogenous in cells; host or cells: Mixed Molt4/Ramos lysate (1:2)
Method: (§1) The compounds of the present invention as described in the previous examples were tested in a Kinobeads™ assay as described for ZAP-70 (WO-A 2007/137867). Briefly, test compounds (at various concentrations) and the affinity matrix with the immobilized aminopyrido-pyrimidine ligand 24 were added to cell lysate aliquots and allowed to bind to the proteins in the lysate sample. After the incubation time the beads with captured proteins were separated from the lysate. Bound proteins were then eluted and the presence of JAK2 and JAK3 was detected and quantified using specific antibodies in a dot blot procedure and the Odyssey infrared detection system. Dose response curves for individual kinases were generated and IC50 values calculated. Kinobeads™ assays for ZAP-70 (WO-A 2007/137867) and for kinase selectivity profiling (WO-A 2006/134056) have been previously described.
(§2) The affinity matrix was washed two times with 15 mL of 1×DP buffer containing 0.2% NP40 (IGEPAL® CA-630, Sigma, #13021) and then resuspended in 1×DP buffer containing 0.2% NP40 (3% beads slurry).
(§3) 5×DP buffer: 250 mM Tris-HCl pH 7.4, 25% Glycerol, 7.5 mM MgCl2, 750 mM NaCl, 5 mM Na3VO4; filter the 5×DP buffer through a 0.22 μm filter and store in aliquots at −80° C. The 5×DP buffer is diluted with H2O to 1×DP buffer containing 1 mM DTT and 25 mM NaF.
(§4) Stock solutions of test compounds were prepared in DMSO. In a 96 well plate 30 μL solution of diluted test compounds at 5 mM in DMSO were prepared. Starting with this solution a 1:3 dilution series (9 steps) was prepared. For control experiments (no test compound) a buffer containing 2% DMSO was used.
(§5) Molt4 cells (ATCC catalogue number CRL-1582) and Ramos cells (ATCC catalogue number CRL-1596) were grown in 1 L Spinner flasks (Integra Biosciences, #182101) in suspension in RPMI 1640 medium (Invitrogen, #21875-034) supplemented with 10% Fetal Bovine Serum (Invitrogen) at a density between 0.15×10^6 and 1.2×10^6 cells/mL. Cells were harvested by centrifugation, washed once with 1×PBS buffer (Invitrogen, #14190-094) and cell pellets were frozen in liquid nitrogen and subsequently stored at −80° C. Cells were homogenized in a Potter S homogenizer in lysis buffer: 50 mM Tris-HCl, 0.8% NP40, 5% glycerol, 150 mM NaCl, 1.5 mM MgCl2, 25 mM NaF, 1 mM sodium vanadate, 1 mM DTT, pH 7.5. One complete EDTA-free tablet (protease inhibitor cocktail, Roche Diagnostics, 1873580) per 25 mL buffer was added. The material was dounced 10 times using a mechanized POTTER S, transferred to 50 mL falcon tubes, incubated for 30 minutes on ice and spun down for 10 minutes at 20,000 g at 4° C. (10,000 rpm in Sorvall SLA600, precooled). The supernatant was transferred to an ultracentrifuge (UZ)-polycarbonate tube (Beckmann, 355654) and spun for 1 hour at 100.000 g at 4° C. (33.500 rpm in Ti50.2, precooled). The supernatant was transferred again to a fresh 50 mL falcon tube, the protein concentration was determined by a Bradford assay (BioRad) and samples containing 50 mg of protein per aliquot were prepared. The samples were immediately used for experiments or frozen in liquid nitrogen and stored frozen at −80° C.
(§6) Cell lysate (approximately 50 mg protein per plate) was thawed in a water bath at room temperature and then stored on ice. To the thawed cell lysate 1×DP 0.8% NP40 buffer containing protease inhibitors (1 tablet for 25 mL buffer; EDTA-free protease inhibitor cocktail; Roche Diagnostics 1873580) was added in order to reach a final protein concentration of 10 mg/mL total protein. The diluted cell lysate was stored on ice. Mixed Molt4/Ramos lysate was prepared by combining one volume of Molt4 lysate and two volumes of Ramos lysate (ratio 1:2).
(§7) To a 96 well filter plate (Multiscreen HTS, BV Filter Plates, Millipore #MSBVN1250) were added per well: 100 μL affinity matrix (3% beads slurry), […], of compound solution, and 50 μL of diluted lysate. […]

JAK3 = target: T2, JAK3 (Homo sapiens, UniProt P52333); experiment: Kinobeads assay, JAK3; assay type: binding; details: mixed Molt4/Ramos cell lysate, dot blot detection
T2 construct: endogenous in cells; host or cells: Mixed Molt4/Ramos lysate (1:2)
T2 sequence (P52333 1-1124): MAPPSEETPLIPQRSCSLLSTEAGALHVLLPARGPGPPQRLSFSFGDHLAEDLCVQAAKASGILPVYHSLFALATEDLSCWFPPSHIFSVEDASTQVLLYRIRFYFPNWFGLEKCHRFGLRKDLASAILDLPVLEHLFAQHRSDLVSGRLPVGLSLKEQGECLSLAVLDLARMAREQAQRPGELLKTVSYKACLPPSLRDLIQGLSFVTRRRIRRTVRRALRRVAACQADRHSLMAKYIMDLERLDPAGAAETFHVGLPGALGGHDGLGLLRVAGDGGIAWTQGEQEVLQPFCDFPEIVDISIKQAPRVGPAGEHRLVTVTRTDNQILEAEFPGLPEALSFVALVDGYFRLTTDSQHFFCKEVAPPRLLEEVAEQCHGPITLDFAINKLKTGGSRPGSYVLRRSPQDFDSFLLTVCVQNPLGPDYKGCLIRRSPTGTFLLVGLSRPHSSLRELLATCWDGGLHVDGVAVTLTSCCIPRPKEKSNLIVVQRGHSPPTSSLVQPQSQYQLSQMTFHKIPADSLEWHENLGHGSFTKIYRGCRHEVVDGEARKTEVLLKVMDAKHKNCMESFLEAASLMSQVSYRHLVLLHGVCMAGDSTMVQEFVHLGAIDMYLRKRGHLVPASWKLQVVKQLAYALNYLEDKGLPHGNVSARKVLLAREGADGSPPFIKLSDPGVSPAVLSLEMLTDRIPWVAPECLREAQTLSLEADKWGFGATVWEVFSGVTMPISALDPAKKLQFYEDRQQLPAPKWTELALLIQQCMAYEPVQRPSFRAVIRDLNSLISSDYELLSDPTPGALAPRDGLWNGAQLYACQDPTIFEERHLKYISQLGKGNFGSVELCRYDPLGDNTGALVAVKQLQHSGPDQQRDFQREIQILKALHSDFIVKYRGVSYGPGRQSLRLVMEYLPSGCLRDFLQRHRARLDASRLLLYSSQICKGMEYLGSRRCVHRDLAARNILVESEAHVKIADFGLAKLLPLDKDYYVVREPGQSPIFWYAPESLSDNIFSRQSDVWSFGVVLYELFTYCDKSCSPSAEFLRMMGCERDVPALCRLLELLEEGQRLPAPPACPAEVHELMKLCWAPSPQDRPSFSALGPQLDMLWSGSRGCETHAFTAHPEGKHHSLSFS
Method: as §1, §2, §3, §4, §5, §6, §7

T1 sequence (O60674 whole entry): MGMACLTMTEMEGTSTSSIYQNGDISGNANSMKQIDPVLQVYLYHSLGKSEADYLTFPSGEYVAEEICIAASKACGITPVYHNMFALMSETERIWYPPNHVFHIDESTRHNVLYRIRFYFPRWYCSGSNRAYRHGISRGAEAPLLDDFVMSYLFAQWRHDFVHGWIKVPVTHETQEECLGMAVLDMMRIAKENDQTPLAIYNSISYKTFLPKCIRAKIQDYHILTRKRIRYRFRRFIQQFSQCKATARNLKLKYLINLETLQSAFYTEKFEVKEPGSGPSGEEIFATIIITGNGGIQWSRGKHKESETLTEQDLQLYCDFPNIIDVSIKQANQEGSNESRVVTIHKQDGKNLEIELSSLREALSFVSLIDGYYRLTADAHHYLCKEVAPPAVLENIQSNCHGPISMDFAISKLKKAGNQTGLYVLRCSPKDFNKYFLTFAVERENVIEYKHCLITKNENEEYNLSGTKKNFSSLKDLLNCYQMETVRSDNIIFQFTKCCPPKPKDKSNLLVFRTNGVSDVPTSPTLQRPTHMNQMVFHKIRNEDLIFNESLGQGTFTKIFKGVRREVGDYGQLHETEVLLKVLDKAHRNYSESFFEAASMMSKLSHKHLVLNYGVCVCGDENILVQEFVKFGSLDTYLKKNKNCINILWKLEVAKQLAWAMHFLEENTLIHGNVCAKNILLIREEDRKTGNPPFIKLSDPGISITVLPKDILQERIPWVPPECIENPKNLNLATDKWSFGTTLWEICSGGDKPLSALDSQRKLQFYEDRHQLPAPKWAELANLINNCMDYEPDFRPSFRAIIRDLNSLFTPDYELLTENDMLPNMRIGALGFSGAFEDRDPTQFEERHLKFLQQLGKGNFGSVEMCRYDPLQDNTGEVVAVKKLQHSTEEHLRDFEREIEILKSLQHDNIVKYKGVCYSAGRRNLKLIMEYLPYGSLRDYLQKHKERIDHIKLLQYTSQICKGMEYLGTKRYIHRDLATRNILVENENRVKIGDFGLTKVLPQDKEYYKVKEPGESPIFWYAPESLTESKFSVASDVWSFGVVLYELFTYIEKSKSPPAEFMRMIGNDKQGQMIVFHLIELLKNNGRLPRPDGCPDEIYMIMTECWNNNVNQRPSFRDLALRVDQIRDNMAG

SMILES | IC50 (JAK2) [µM] | IC50 (JAK3) [µM]
Cn1cc(Nc2ncc3cnn(Cc4ccccc4C#N)c3n2)cn1 [Example 1, 2-((6-(1-Methyl-1H-pyrazol-4-ylamino)-1H-pyrazolo[3,4-d]pyrimidin-1-yl)methyl)benzonitrile] | 1 to 10 | < 0.1
Cn1cc(Nc2ncc3cnn(Cc4ccccc4F)c3n2)cn1 [Example 2, 1-(2-Fluorobenzyl)-N-(1-methyl-1H-pyrazol-4-yl)-1H-pyrazolo[3,4-d]pyrimidin-6-amine] | 1 to 10 | < 0.1
Cn1ccc(Nc2ncc3cnn(Cc4ccccc4C#N)c3n2)n1 [Example 3, 2-((6-(1-Methyl-1H-pyrazol-3-ylamino)-1H-pyrazolo[3,4-d]pyrimidin-1-yl)methyl)benzonitrile] | ≥ 10 | 0.1 to 1
N#Cc1ccccc1Cn1ncc2cnc(Nc3cn[nH]c3)nc21 [Example 4, 2-((6-(1H-Pyrazol-4-ylamino)-1H-pyrazolo[3,4-d]pyrimidin-1-yl)methyl)benzonitrile] | 0.1 to 1 | < 0.1
N#Cc1ccccc1Cn1ncc2cnc(Nc3ccon3)nc21 [Example 8] | ≥ 10 | 1 to 10
Cc1cc(Nc2ncc3cnn(Cc4ccccc4C#N)c3n2)nn1C [Example 9, 2-((6-(1,5-Dimethyl-1H-pyrazol-3-ylamino)-1H-pyrazolo[3,4-d]pyrimidin-1-yl)methyl)benzonitrile] | ≥ 10 | 0.1 to 1
COCCn1cc(Nc2ncc3cnn(Cc4ccccc4C#N)c3n2)cn1 [Example 10, 2-((6-(1-(2-Methoxyethyl)-1H-pyrazol-4-ylamino)-1H-pyrazolo[3,4-d]pyrimidi-1-yl)methyl)benzonitrile] | 0.1 to 1 | < 0.1
CCn1cc(Nc2ncc3cnn(Cc4ccccc4C#N)c3n2)cn1 [Example 11, 2-((6-(1-Ethyl-1H-pyrazol-4-ylamino)-1H-pyrazolo[3,4-d]pyrimidin-1-yl)methyl)benzonitrile] | 1 to 10 | < 0.1
CC(C)n1cc(Nc2ncc3cnn(Cc4ccccc4C#N)c3n2)cn1 [Example 12, 2-((6-(1-Isopropyl-1H-pyrazol-4-ylamino)-1H-pyrazolo[3,4-d]pyrimidin-1-yl)methyl)benzonitrile] | 1 to 10 | < 0.1
CNC(=O)Cn1cc(Nc2ncc3cnn(Cc4ccccc4C#N)c3n2)cn1 [Example 13, 2-(4-(1-(2-Cyanobenzyl)-1H-pyrazolo[3,4-d]pyrimidin-6-ylamino)-1H-pyrazol-1-yl)-N-methylacetamide] | 0.1 to 1 | < 0.1
N#Cc1ccccc1Cn1ncc2cnc(Nc3cnn(CC(=O)N4CCOCC4)c3)nc21 [Example 14, 2-((6-(1-(2-Morpholino-2-oxoethyl)-1H-pyrazol-4-ylamino)-1H-pyrazolo[3,4-d]pyrimidin-1-yl)methyl)benzonitrile] | 0.1 to 1 | < 0.1
N#CCCn1cc(Nc2ncc3cnn(Cc4ccccc4C#N)c3n2)cn1 [Example 15, 2-((6-(1-(2-Cyanoethyl)-1H-pyrazol-4-ylamino)-1H-pyrazolo[3,4-d]pyrimidin-1-yl)methyl)benzonitrile] | 1 to 10 | < 0.1
Cn1cc(Nc2ncc3cnn(Cc4ccccc4C(N)=O)c3n2)cn1 [Example 16, 2-((6-(1-Methyl-1H-pyrazol-4-ylamino)-1H-pyrazolo[3,4-d]pyrimidin-1-yl)methyl)benzamide] | 1 to 10 | < 0.1
Cn1cc(Nc2ncc3cnn(Cc4cccc(N5CCOCC5)c4)c3n2)cn1 [Example 162, N-(1-Methyl-1H-pyrazol-4-yl)-1-(3-morpholinobenzyl)-1H-pyrazolo[3,4-d]pyrimidin-6-amine] | ≥ 10 | –
O=C(c1cccc(Cn2ncc3cnc(Nc4cnn(CCO)c4)nc32)c1F)N1CCOCC1 [Example 313, (2-Fluoro-3-((6-((1-(2-hydroxyethyl)-1H-pyrazol-4-yl)amino)-1H-pyrazolo[3,4-d]pyrimidin-1-yl)methyl)phenyl)(morpholino)methanone] | ≥ 10 | –
